Test results: the NIST ThermoML archive (doi:10.1016/j.tca.2010.07.017)
Numbers after ± are expanded uncertainties.

Assays:
[1] = refractive index (Na D-line) (dimensionless); details: 298.15 K; 101.33 kPa; Liquid; Standard Abbe refractometry
[2] = 298.15 K; 101.33 kPa; Liquid; Vibrating tube method

SMILES | refractive index [1] | mass density [2] [kg/m3]
C1COCCO1 [1,4-dioxane] | 1.4202 ± 0.0004 | 1028.12 ± 0.11
CC(C)=O [acetone] | 1.3563 ± 0.0004 | 784.65 ± 0.12
C1CCOC1 [tetrahydrofuran] | 1.4048 ± 0.0004 | 882.03 ± 0.1
